# Assay results reported in PMC9271048, “Probing strigolactone perception mechanisms with rationally designed small-molecule agonists stimulating germination of root parasitic weeds” (Nature Communications, 2022).
# Like-named read-outs stand apart in the source and are kept apart here.
# Legend:
# [1] = target: ShHTL7 (Striga hermonthica, UniProt A0A0M3PNA2); assay: biochemical; assay type: binding
# Method in brief: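 Surface plasmon resonance was run at 25 °C on ShHTL7 immobilized by amine coupling, using phosphate-buffered saline with 0.05% P20 and 0.5% DMSO. Each injection had 1 min association and 1 min dissociation, with a 50 μM screen followed by concentration series. KD was derived by kinetic analysis or steady-state affinity.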
# [2] = system: P. aegyptiaca seeds; assay: P. aegyptiaca seed germination assay; assay type: in vivo, Phelipanche aegyptiaca; design: P. aegyptiaca germination EC50 values, source data average: unit not given here; P. aegyptiaca seed germination activity, source data average: unit of the concentration uncertain; settings: for P. aegyptiaca seed germination activity, source data average: Supplementary Fig. 9b
# Method in brief: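 P. aegyptiaca seeds, sterilized in 1% NaClO, preconditioned in the dark at 25 °C for 4 days on glass-fiber discs, then given test compound in water with 1‰ acetone. Incubated dark at 25 °C for a week; germination scored under ×20 magnification, three biological repeats; rac-GR24 positive control.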
# [3] = Chemical reactivity analysis (HPLC, methanol/PBS pH 7.4); assay type: physicochemical
# Description: Chemical reactivity is an important factor in the bioactivity of natural and synthetic SLs.
# One hundred twenty microliters of sample solution was added to a solution of PBS (10 mM, pH 7.4, 810 μL) and methanol (270 μL). The solution was stirred vigorously for 30 s and then transferred to HPLC vial, and the vial was stored at 26 ± 1 °C. […] The analytical column was Extend-C18 (4.6 mm × 150 mm × 5 μm). The mobile phases were CH3CN and H2O (containing 0.1% HCO2H), VCH3CN:VH2O = 50:50, with a flow rate of 1 mL/min, and an injection volume of 5 μL. The percentage of remaining compounds in the solution was calculated from the peak area. The half-life times (t1/2) of samples were calculated.
# [4] = system: ShHTLs (10 HTL proteins in S. hermonthica); assay: YLG-based competition assay on HTL proteins of S. hermonthica; assay type: biochemical, Striga hermonthica; settings: Supplementary Fig. 27
# From the text: In P. aegyptiaca, 5 KAI2s have been proposed as the SL receptors for the regulation of seed germination. […] The high sequence similarity may explain the consistency of these compounds in inducing germination in both S. hermonthica and P. aegyptiaca.
# The excitation and emission wavelengths of YLG are 480 and 520 nm, respectively. We used a fluorescence spectrophotometer (CARY Eclipse) to detect the fluorescence intensity change of YLG during the enzymatic hydrolysis assay process. All the testing compounds and YLG were dissolved in DMSO and prepared as stock solutions just before use. […] The changes of fluorescence at 520 nm of each well were recorded every 1 min for 30 min. Using the reaction mixture without adding enzyme and tested compounds as the background control. After subtracting the background hydrolysis, a linear fluorescence increase in 8 min was used for further inspection. The IC50 values were determined via fitting relative inhibition percentages with the varying concentrations of compounds in Microsoft Excel.
# Supplementary Fig. 27. Binding of compounds 4a, (R)- and (S)-4a, and 4g-i to the HTL proteins in S. hermonthica and KAI2 protein homologs in P. aegyptiaca. In the competitive inhibitory activity assay, YLG (3 µM) was used as the fluorogenic substrate. Error bar indicates SD (n = 3 biologically independent experiments).
# (1 picture or pasted object on this page, not shown here)
# [5] = ShHTL2, YLG competition, read-out: IC50, replicate 1
# [6] = ShHTL2, YLG competition, read-out: IC50, replicate 2
# [7] = ShHTL2, YLG competition, read-out: IC50, replicate 3
# [8] = ShHTL2, average of 3 replicates, read-out: IC50, average
# [9] = ShHTL3, YLG competition, read-out: IC50, replicate 1
# [10] = ShHTL3, YLG competition, read-out: IC50, replicate 2
# [11] = ShHTL3, YLG competition, read-out: IC50, replicate 3
# [12] = ShHTL3, average of 3 replicates, read-out: IC50, average
# [13] = ShHTL4, YLG competition, read-out: IC50, replicate 1
# [14] = ShHTL4, YLG competition, read-out: IC50, replicate 2
# [15] = ShHTL4, YLG competition, read-out: IC50, replicate 3
# [16] = ShHTL4, average of 3 replicates, read-out: IC50, average
# [17] = ShHTL5, YLG competition, read-out: IC50, replicate 1
# [18] = ShHTL5, YLG competition, read-out: IC50, replicate 2
# [19] = ShHTL5, YLG competition, read-out: IC50, replicate 3
# [20] = ShHTL5, average of 3 replicates, read-out: IC50, average
# [21] = ShHTL6, YLG competition, read-out: IC50, replicate 1
# [22] = ShHTL6, YLG competition, read-out: IC50, replicate 2
# [23] = ShHTL6, YLG competition, read-out: IC50, replicate 3
# [24] = ShHTL6, average of 3 replicates, read-out: IC50, average
# [25] = ShHTL8, YLG competition, read-out: IC50, replicate 1
# [26] = ShHTL8, YLG competition, read-out: IC50, replicate 2
# [27] = ShHTL8, YLG competition, read-out: IC50, replicate 3
# [28] = ShHTL8, average of 3 replicates, read-out: IC50, average
# [29] = ShHTL9, YLG competition, read-out: IC50, replicate 1
# [30] = ShHTL9, YLG competition, read-out: IC50, replicate 2
# [31] = ShHTL9, YLG competition, read-out: IC50, replicate 3
# [32] = ShHTL9, average of 3 replicates, read-out: IC50, average
# [33] = ShHTL10, YLG competition, read-out: IC50, replicate 1
# [34] = ShHTL10, YLG competition, read-out: IC50, replicate 2
# [35] = ShHTL10, YLG competition, read-out: IC50, replicate 3
# [36] = ShHTL10, average of 3 replicates, read-out: IC50, average
# [37] = ShHTL11, YLG competition, read-out: IC50, replicate 1
# [38] = ShHTL11, YLG competition, read-out: IC50, replicate 2
# [39] = ShHTL11, YLG competition, read-out: IC50, replicate 3
# [40] = ShHTL11, average of 3 replicates, read-out: IC50, average
# Chain of ShHTL7 (A0A0M3PNA2 entry or part of it): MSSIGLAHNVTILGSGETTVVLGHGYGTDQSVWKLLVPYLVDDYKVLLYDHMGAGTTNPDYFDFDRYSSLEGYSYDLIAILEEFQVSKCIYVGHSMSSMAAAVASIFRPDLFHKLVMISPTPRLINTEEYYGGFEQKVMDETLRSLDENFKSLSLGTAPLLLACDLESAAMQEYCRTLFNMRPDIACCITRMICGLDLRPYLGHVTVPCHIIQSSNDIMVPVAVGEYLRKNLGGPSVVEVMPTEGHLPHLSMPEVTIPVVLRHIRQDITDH
compound,measurement,setting,value
"CC1=C[C@H](O/C=C2/C(=O)O[C@@H]3c4ccccc4C[C@H]23)OC1=O (racemic) [rac-GR24, reference compound]",Kd,"[1]; Supplementary Table 7, binding affinities between ShHTL7 and agonists by SPR, read-out: KD/μM",0.93 ± 0.17 µM
same,Kd,"[1]; recombinant ShHTL7 immobilized on CM5 chip, 25 °C, read-out: KD (SPR)",~0.93 µM
same,"germination of P. aegyptiaca seeds, source data average","[2]; 10 μM, Fig. 1d source data, average of 3",96.5229%
same,"P. aegyptiaca seed germination activity, source data average",[2]; 0.1 (unit uncertain) as printed,90.7731%
same,"P. aegyptiaca seed germination activity, source data average",[2]; 1 (unit uncertain) as printed,95.3227%
same,"P. aegyptiaca seed germination activity, source data average",[2]; 10 (unit uncertain) as printed,96.5229%
same,P. aegyptiaca germination(%),"[2]; Supplementary Table 1, compounds tested at 10 μM, means ± SD, n = 3",96.4%
same,EC50,"[2]; in vivo, read-out: EC50, P. aegyptiaca seed germination",48.5 pM
same,"P. aegyptiaca germination EC50 values, source data average","[2]; source data of Fig. 2c and Supplementary Fig. 8b, average of 3",10.3597
same,half-life time (t1/2),"[3]; 1:3 methanol and PBS (10 mM) pH 7.4, HPLC",3.0 h
same,"half-life time (t1/2), source data average","[3]; Supplementary Fig. 10 source data, methanol/PBS pH 7.4, 26 °C",3.031 h
same,IC50,[4]; [5],26.2 µM
same,IC50,[4]; [6],25.2 µM
same,IC50,[4]; [7],25.5 µM
same,IC50,[4]; [8],25.7 µM
same,IC50,[4]; [9],9.4 µM
same,IC50,[4]; [10],7.11 µM
same,IC50,[4]; [11],8.7 µM
same,IC50,[4]; [12],8.4 µM
same,IC50,[4]; [13],0.239 µM
same,IC50,[4]; [14],0.239 µM
same,IC50,[4]; [15],0.28 µM
same,IC50,[4]; [16],0.253 µM
same,IC50,[4]; [17],5.89 µM
same,IC50,[4]; [18],6.85 µM
same,IC50,[4]; [19],6.74 µM
same,IC50,[4]; [20],6.49 µM
same,IC50,[4]; [21],2.28 µM
same,IC50,[4]; [22],1.87 µM
same,IC50,[4]; [23],2.23 µM
same,IC50,[4]; [24],2.13 µM
same,IC50,[4]; [25],6.15 µM
same,IC50,[4]; [26],6.78 µM
same,IC50,[4]; [27],4.51 µM
same,IC50,[4]; [28],5.81 µM
same,IC50,[4]; [29],4.91 µM
same,IC50,[4]; [30],4.06 µM
same,IC50,[4]; [31],5.17 µM
same,IC50,[4]; [32],4.71 µM
same,IC50,[4]; [33],4.93 µM
same,IC50,[4]; [34],6.56 µM
same,IC50,[4]; [35],5.51 µM
same,IC50,[4]; [36],5.67 µM
same,IC50,[4]; [37],3.27 µM
same,IC50,[4]; [38],3.14 µM
same,IC50,[4]; [39],3.16 µM
same,IC50,[4]; [40],3.19 µM
CC1=CC(OC(=O)N2CCN(C(=O)COc3ccc(Br)cc3C)CC2)OC1=O (stereo not drawn) [4a],Kd,[1],2.07 ± 0.51 µM
same,EC50,"[2]; Phelipanche aegyptiaca, read-out: EC50, P. aegyptiaca seed germination",~86.2 pM
same,EC50,"[2]; Phelipanche aegyptiaca, source data of Fig. 2c and Supplementary Fig. 8b, average of 3, read-out: P. aegyptiaca germination EC50 values, source data average (converted)",62.8 pM
same,half-life at 0.5 mM,"[3]; methanol/phosphate-buffered saline mixture, Supplementary Fig. 10 source data, methanol/PBS pH 7.4, 26 °C, read-out: half-life time (t1/2), source data average (converted)",3.38 h
same,IC50,[4]; [5],56.1 µM
same,IC50,[4]; [6],49 µM
same,IC50,[4]; [7],62.1 µM
same,IC50,[4]; [8],55.8 µM
same,IC50,[4]; [9],43.3 µM
same,IC50,[4]; [10],41.4 µM
same,IC50,[4]; [11],44.5 µM
same,IC50,[4]; [12],43 µM
same,IC50,[4]; [13],6.23 µM
same,IC50,[4]; [14],4.7 µM
same,IC50,[4]; [15],3.91 µM
same,IC50,[4]; [16],4.95 µM
same,IC50,[4]; [17],18.6 µM
same,IC50,[4]; [18],15.2 µM
same,IC50,[4]; [19],13.3 µM
same,IC50,[4]; [20],15.7 µM
same,IC50,[4]; [21],28.4 µM
same,IC50,[4]; [22],23.6 µM
same,IC50,[4]; [23],18.4 µM
same,IC50,[4]; [24],23.5 µM
same,IC50,[4]; [25],14.7 µM
same,IC50,[4]; [26],15.3 µM
same,IC50,[4]; [27],21.5 µM
same,IC50,[4]; [28],17.2 µM
same,IC50,[4]; [29],20.4 µM
same,IC50,[4]; [30],21.8 µM
same,IC50,[4]; [31],26.6 µM
same,IC50,[4]; [32],22.9 µM
same,IC50,[4]; [33],31.1 µM
same,IC50,[4]; [34],39.7 µM
same,IC50,[4]; [35],31 µM
same,IC50,[4]; [36],33.9 µM
same,IC50,[4]; [37],9.32 µM
same,IC50,[4]; [38],9.73 µM
same,IC50,[4]; [39],13.1 µM
same,IC50,[4]; [40],10.7 µM
